In ChEMBL document CHEMBL4402548, “Discovery of novel tRNA-amino acid dual-site inhibitors against threonyl-tRNA synthetase by fragment-based target hopping” (Eur J Med Chem, 2020):
≈ marks a conversion by molar mass, not a printed value.

Columns and labels:
Escherichia coli = test: Antibacterial activity against Escherichia coli ATCC 25922 by visual method; type: functional
Salmonella enterica [1] = test: Antibacterial activity against Salmonella enterica 87 by visual method; type: functional
Pseudomonas aeruginosa = test: Antibacterial activity against Pseudomonas aeruginosa ATCC 27853 by visual method; type: functional
Salmonella enterica [2] = test: Inhibition of Salmonella enterica Threonyl-tRNA synthetase assessed as reduction in aminoacylation activity at 100 uM using L-threonine as substrate incubated for 3 hrs by Kinase-glo luminescence assay relative to control
Salmonella enterica [3] = test: Binding affinity to Salmonella enterica Threonyl-tRNA synthetase assessed as change in melting temperature at 0.5 mM incubated for 10 mins by SYPRO orange dye-based thermal shift assay
[4] = Inhibition of Salmonella enterica Threonyl-tRNA synthetase assessed as reduction in aminoacylation activity using L-threonine as substrate in presence of incubated for 3 hrs by Kinase-glo luminescence assay
Staphylococcus aureus [5] = test: Antibacterial activity against methicillin-resistant Staphylococcus aureus R3708 by visual method; type: functional
Enterococcus faecalis = test: Antibacterial activity against Enterococcus faecalis ATCC 29212 by visual method; type: functional
Staphylococcus aureus [6] = test: Antibacterial activity against Staphylococcus aureus ATCC 29213 by visual method; type: functional
[7] = Binding affinity to Salmonella enterica Threonyl-tRNA synthetase at 200 uM by isothermal titration calorimetry

| SMILES | inhibition (Salmonella enterica [2]) [%] | ΔTm (Salmonella enterica [3]) [°C] | IC50 [4] [µM] | further results |
| --- | --- | --- | --- | --- |
| CC1(C)S[C@@H]2[C@H](NC(=O)[C@H](N)c3ccccc3)C(=O)N2[C@H]1C(=O)O [AMPICILLIN] |  |  |  | MIC (Escherichia coli): 1 µg/mL (≈ 2.86 µM); MIC (Salmonella enterica [1]): 1 µg/mL (≈ 2.86 µM); MIC (Pseudomonas aeruginosa): 1 µg/mL (≈ 2.86 µM) |
| COc1cc2ncn(C/C=C/CNC(=O)[C@@H](N)[C@@H](C)O)c(=O)c2cc1OC | 0 | 1.5 |  |  |
| C[C@@H](O)[C@H](N)C(=O)NC/C=C/Cn1cnc2cc(Cl)c(Cl)cc2c1=O | 101 | 23.7 | 1.4 | MIC (Staphylococcus aureus [5]): 32 µg/mL (≈ 83.1 µM); MIC (Enterococcus faecalis): 32 µg/mL (≈ 83.1 µM); MIC (Staphylococcus aureus [6]): 32 µg/mL (≈ 83.1 µM); Kd [7]: 1.36 µM; MIC (Escherichia coli): 16 µg/mL (≈ 41.5 µM); MIC (Salmonella enterica [1]): 16 µg/mL (≈ 41.5 µM); MIC (Pseudomonas aeruginosa): 32 µg/mL (≈ 83.1 µM) |
| C[C@@H](O)[C@H](N)C(=O)OCCCCCCn1cnc2cc(Br)c(Cl)cc2c1=O | 32 | 9.9 |  |  |
| C[C@@H](O)[C@H](N)C(=O)NC/C=C/Cn1cnc2cc(Cl)c(F)cc2c1=O | 93 | 18.8 | 9.7 |  |
| C[C@@H](O)[C@H](N)C(=O)N1CCC(C(=O)Cn2cnc3cc(Br)c(Cl)cc3c2=O)CC1 | 0 | 0 |  |  |
| C[C@@H](O)[C@H](N)C(=O)OCCCCn1cnc2cc(Br)c(Cl)cc2c1=O | 42 | 10.2 |  |  |
| C[C@@H](O)[C@H](N)C(=O)NC/C=C/Cn1cnc2cc(Cl)ncc2c1=O | 34 | 8.6 |  |  |
| COc1cc2c(=O)n(C/C=C/CNC(=O)[C@@H](N)[C@@H](C)O)cnc2cn1 | 17 | 9.6 |  |  |
| C[C@@H](O)[C@H](N)C(=O)NS(=O)(=O)c1cccc(-c2ccc3[nH]ncc3c2)c1 | 100 | 29.5 | 0.13 | MIC (Staphylococcus aureus [5]): > 256 µg/mL; MIC (Enterococcus faecalis): > 256 µg/mL; MIC (Staphylococcus aureus [6]): > 256 µg/mL; MIC (Escherichia coli): > 256 µg/mL; MIC (Salmonella enterica [1]): > 256 µg/mL; MIC (Pseudomonas aeruginosa): > 256 µg/mL |
| C[C@@H](O)[C@H](N)C(=O)OC/C=C/Cn1cnc2cc(Br)c(Cl)cc2c1=O | 96 | 15.7 | 9.6 |  |
| C[C@@H](O)[C@H](N)C(=O)N1CCC(Cn2cnc3cc(Br)c(Cl)cc3c2=O)CC1 | 23 | 12.4 |  |  |
| Cc1cc2ncn(C/C=C/CNC(=O)[C@@H](N)[C@@H](C)O)c(=O)c2cc1C | 7 | 10.6 |  |  |
| C[C@@H](O)[C@H](N)C(=O)NC/C=C/Cn1cnc2cc(Br)c(Br)cc2c1=O | 100 | 20.3 | 2.4 |  |
| C[C@@H](O)[C@H](N)C(=O)NC/C=C/Cn1cnc2cc(Br)c(Cl)cc2c1=O | 99 | 22.5 | 3.2 | MIC (Staphylococcus aureus [5]): 64 µg/mL (≈ 149 µM); MIC (Enterococcus faecalis): 64 µg/mL (≈ 149 µM); MIC (Staphylococcus aureus [6]): 32 µg/mL (≈ 74.5 µM); MIC (Escherichia coli): 32 µg/mL (≈ 74.5 µM); MIC (Salmonella enterica [1]): 16 µg/mL (≈ 37.2 µM); MIC (Pseudomonas aeruginosa): 32 µg/mL (≈ 74.5 µM) |
| C[C@@H](O)[C@H](N)C(=O)NC/C=C/Cn1cnc2ccccc2c1=O | 15 | 9.2 |  |  |
| C[C@@H](O)[C@H](N)C(=O)NC/C=C/Cn1cnc2cc(F)c(F)cc2c1=O | 77 | 17.2 | 39.4 |  |
| CN[C@H](CC(C)C)C(=O)N[C@H]1C(=O)N[C@@H](CC(N)=O)C(=O)N[C@H]2C(=O)N[C@H]3C(=O)N[C@H](C(=O)N[C@H](C(=O)O)c4cc(O)cc(O)c4-c4cc3ccc4O)[C@H](O)c3ccc(c(Cl)c3)Oc3cc2cc(c3O[C@@H]2O[C@H](CO)[C@@H](O)[C@H](O)[C@H]2O[C@H]2C[C@](C)(N)[C@H](O)[C@H](C)O2)Oc2ccc(cc2Cl)[C@H]1O [VANCOMYCIN] |  |  |  | MIC (Enterococcus faecalis): 2 µg/mL (≈ 1.38 µM) |
| C[C@@H](O)[C@H](N)C(=O)NC/C=C/Cn1cnc2cc3c(cc2c1=O)OCO3 | 5 | 9.5 |  |  |
| C[C@@H](O)[C@H](N)C(=O)NC/C=C/Cn1cnc2cnc(F)cc2c1=O | 36 | 12 |  |  |
| O=C(CC1NCCCC1O)Cn1cnc2cc(Br)c(Cl)cc2c1=O (stereo unspecified) [HALOFUGINONE] | 5 | -1.4 |  | MIC (Staphylococcus aureus [5]): 64 µg/mL (≈ 154 µM); MIC (Enterococcus faecalis): 128 µg/mL (≈ 309 µM); MIC (Staphylococcus aureus [6]): 64 µg/mL (≈ 154 µM); MIC (Escherichia coli): 64 µg/mL (≈ 154 µM); MIC (Salmonella enterica [1]): 64 µg/mL (≈ 154 µM); MIC (Pseudomonas aeruginosa): 64 µg/mL (≈ 154 µM) |
| C[C@@H](O)[C@H](N)C(=O)NC/C=C/Cn1cnc2cc(Cl)c([N+](=O)[O-])cc2c1=O | 0 | 0.5 |  |  |
| C[C@@H](O)[C@H](N)C(=O)NC/C=C/Cn1cnc2cc(C(F)(F)F)ccc2c1=O | 21 | 11.9 |  |  |
| C[C@@H](O)[C@H](N)C(=O)NC/C=C/Cn1cnc2cc3ccccc3cc2c1=O | 70 | 16.9 | 55.5 |  |
| C[C@@H](O)[C@H](N)C(=O)NCCCCCn1cnc2cc(Br)c(Cl)cc2c1=O | 87 | 14 | 29.7 |  |
| C[C@@H](O)[C@H](N)C(=O)OCCCn1cnc2cc(Br)c(Cl)cc2c1=O | 0 | 7.5 |  |  |
| C[C@@H](O)[C@H](N)C(=O)NC/C=C/Cn1cnc2cc3c(cc2c1=O)OCCO3 | 0 | 0.6 |  |  |
| C[C@@H](O)[C@H](N)C(=O)NCCCCCCn1cnc2cc(Br)c(Cl)cc2c1=O | 96 | 12.4 | 7.3 |  |
| C[C@@H](O)[C@H](N)C(=O)OCCCCCn1cnc2cc(Br)c(Cl)cc2c1=O | 30 | 9.8 |  |  |
| C[C@@H](O)[C@H](N)C(=O)NC/C=C/Cn1cnc2cnc(Cl)cc2c1=O | 68 | 14.9 | 49.7 |  |
